Results published in US12162890B2 (Novartis AG, priority 2015, dated 2024).

These compounds were tested against HEK293 cells with stable expression of the GRIN1 gene and tetracycline-inducible expression of the GRIN2B gene (NMDA receptor, NR2B) (Homo sapiens, UniProt Q13224) (assay: Fluo-8 Ca2+ flux assay: reversal of Ro 25-6981-mediated suppression of the Ca2+ response to co-agonist (glutamate/glycine)). Conditions: reversal of the Ro 25-6981 suppression of the Ca2+ response to co-agonist (glutamate/glycine).
Assay type: cell-based
Also: test concentration or dose not given here.

Chain of HEK293 cells with stable expression of the GRIN1 gene and tetracycline-inducible expression of the GRIN2B gene (NMDA receptor, NR2B) (Q13224 27-1484, other chains not shown): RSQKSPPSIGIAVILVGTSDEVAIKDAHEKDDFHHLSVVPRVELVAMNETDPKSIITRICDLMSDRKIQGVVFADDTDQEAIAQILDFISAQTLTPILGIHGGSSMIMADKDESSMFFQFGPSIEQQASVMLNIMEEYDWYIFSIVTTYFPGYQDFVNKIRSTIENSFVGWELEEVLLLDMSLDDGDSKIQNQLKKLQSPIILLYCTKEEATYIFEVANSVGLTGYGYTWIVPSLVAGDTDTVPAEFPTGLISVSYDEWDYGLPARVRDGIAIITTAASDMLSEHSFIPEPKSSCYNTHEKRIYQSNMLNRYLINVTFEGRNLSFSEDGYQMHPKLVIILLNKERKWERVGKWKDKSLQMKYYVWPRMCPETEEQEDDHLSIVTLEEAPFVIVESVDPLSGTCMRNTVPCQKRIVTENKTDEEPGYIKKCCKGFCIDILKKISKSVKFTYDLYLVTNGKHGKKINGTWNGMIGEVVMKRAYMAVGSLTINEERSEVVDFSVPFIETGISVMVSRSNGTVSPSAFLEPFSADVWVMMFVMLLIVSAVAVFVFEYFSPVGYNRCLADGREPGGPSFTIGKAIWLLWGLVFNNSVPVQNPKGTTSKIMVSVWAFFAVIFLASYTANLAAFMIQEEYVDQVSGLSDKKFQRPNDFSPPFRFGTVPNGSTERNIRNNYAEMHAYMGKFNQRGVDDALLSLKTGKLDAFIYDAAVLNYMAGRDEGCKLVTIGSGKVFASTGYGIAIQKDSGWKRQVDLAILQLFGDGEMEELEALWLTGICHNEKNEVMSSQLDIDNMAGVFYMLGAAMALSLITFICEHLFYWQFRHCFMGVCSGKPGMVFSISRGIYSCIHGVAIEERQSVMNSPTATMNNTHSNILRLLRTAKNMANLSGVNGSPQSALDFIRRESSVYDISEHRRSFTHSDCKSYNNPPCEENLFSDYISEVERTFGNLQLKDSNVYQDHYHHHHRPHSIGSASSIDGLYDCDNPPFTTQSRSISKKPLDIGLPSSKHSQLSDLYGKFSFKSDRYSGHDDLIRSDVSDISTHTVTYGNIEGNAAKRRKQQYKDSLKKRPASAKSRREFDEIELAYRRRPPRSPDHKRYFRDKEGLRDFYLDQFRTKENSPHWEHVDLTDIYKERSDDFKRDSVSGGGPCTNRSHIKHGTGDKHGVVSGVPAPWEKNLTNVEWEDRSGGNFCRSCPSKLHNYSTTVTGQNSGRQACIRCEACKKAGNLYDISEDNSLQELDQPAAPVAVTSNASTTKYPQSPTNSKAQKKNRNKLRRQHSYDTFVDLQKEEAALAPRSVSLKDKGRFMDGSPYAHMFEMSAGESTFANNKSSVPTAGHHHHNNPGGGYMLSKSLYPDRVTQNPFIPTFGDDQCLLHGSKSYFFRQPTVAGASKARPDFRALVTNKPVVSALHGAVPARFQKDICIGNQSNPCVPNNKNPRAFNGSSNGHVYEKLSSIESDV

Response Recovered (%)	Structure (SMILES)
160%	O=C(Cn1ccc2c(c(-c3ccc(Cl)c(Cl)c3)cn2C2CC2)c1=O)N1CC(F)(CF)C1 [Example 293, 1-cyclopropyl-3-(3,4-dichlorophenyl)-5-(2-(3-fluoro-3-(fluoromethyl)azetidin-1-yl)-2-oxoethyl)-1,5-dihydro-4H-pyrrolo[3,2-c]pyridin-4-one]
28%	O=C(Cn1ccc2scc(-c3cnc(Cl)c(Cl)c3)c2c1=O)N1CC(F)C(F)C1 (stereo not drawn) [Example 35, 3-(5,6-dichloropyridin-3-yl)-5-(2-(3,4-difluoropyrrolidin-1-yl)-2-oxoethyl)thieno[3,2-c]pyridin-4(5H)-one]
7%	O=C(Cn1cnc2csc(-c3ccc(Cl)cc3)c2c1=O)N1CCC(O)C1 (stereo not drawn) [Example 352, 5-(4-chlorophenyl)-3-(2-(3-hydroxypyrrolidin-1-yl)-2-oxoethyl)thieno[3,4-d]pyrimidin-4(3H)-one]
95%	Cn1cnc(-n2cc(-c3ccc(F)c(C(F)(F)F)c3)c3c(=O)n(CC(=O)N4CCC(F)C4)ccc32)n1 (stereo not drawn) [Example 266, 3-(4-fluoro-3-(trifluoromethyl)phenyl)-5-(2-(3-fluoropyrrolidin-1-yl)-2-oxoethyl)-1-(1-methyl-1H-1,2,4-triazol-3-yl)-1H-pyrrolo[3,2-c]pyridin-4(5H)-one]
14%	O=C(Cn1cnc2[nH]cc(-c3cnc(Cl)c(C(F)(F)F)c3)c2c1=O)N1CCC(F)C1 (stereo not drawn) [Example 183, 5-(6-chloro-5-(trifluoromethyl)pyridin-3-yl)-3-(2-(3-fluoropyrrolidin-1-yl)-2-oxoethyl)-3H-pyrrolo[2,3-d]pyrimidin-4(7H)-one]
13%	CC(C)(O)Cn1cc(-c2ccc(F)c(C(F)(F)F)c2)c2c(=O)n(CC(=O)N3CC(F)C(F)C3)ccc21 (stereo not drawn) [Example 258, 5-(2-(3,4-difluoropyrrolidin-1-yl)-2-oxoethyl)-3-(4-fluoro-3-(trifluoromethyl)phenyl)-1-(2-hydroxy-2-methylpropyl)-1H-pyrrolo[3,2-c]pyridin-4(5H)-one]
22%	O=C(Cn1ccc2scc(-c3cnc(F)c(Cl)c3)c2c1=O)N1CCC(F)C1 (stereo not drawn) [Example 37, 3-(5-chloro-6-fluoropyridin-3-yl)-5-(2-(3-fluoropyrrolidin-1-yl)-2-oxoethyl)thieno[3,2-c]pyridin-4(5H)-one]
39%	Cc1cc(-c2csc3ccn(CC(=O)N4CC(C)(F)C4)c(=O)c23)cnc1Cl [Example 84, 3-(6-chloro-5-methylpyridin-3-yl)-5-(2-(3-fluoro-3-methylazetidin-1-yl)-2-oxoethyl)thieno[3,2-c]pyridin-4(5H)-one]
80%	Cn1cc(-n2cc(-c3ccc(F)c(C(F)(F)F)c3)c3c(=O)n(CC(=O)N4CCC(F)C4)ccc32)cn1 (stereo not drawn) [Example 234]
29%	O=C(Cn1cc(C2CC2)c2scc(-c3ccc(Cl)c(C(F)(F)F)c3)c2c1=O)N1CCCC1 [Example 101, 3-(4-chloro-3-(trifluoromethyl)phenyl)-7-cyclopropyl-5-(2-oxo-2-(pyrrolidin-1-yl)ethyl)thieno[3,2-c]pyridin-4(5H)-one]
0%	O=C(Cn1cnc2csc(-c3ccc(Cl)cc3)c2c1=O)N1CCCCC1 [Example 350, 5-(4-chlorophenyl)-3-(2-oxo-2-(piperidin-1-yl)ethyl)thieno[3,4-d]pyrimidin-4(3H)-one]
8%	O=C(Cn1nnc2scc(-c3ccc(Cl)c(C(F)(F)F)c3)c2c1=O)N1CCCC1 [Example 331, 5-[4-chloro-3-(trifluoromethyl)phenyl]-3-[2-oxo-2-(pyrrolidin-1-yl)ethyl]-3H,4H-thieno[2,3-d][1,2,3]triazin-4-one]
130%	CCC1(F)CN(C(=O)Cn2ccc3scc(-c4ccc(F)c(Cl)c4)c3c2=O)C1 [Example 52, 3-(3-chloro-4-fluorophenyl)-5-(2-(3-ethyl-3-fluoroazetidin-1-yl)-2-oxoethyl)thieno[3,2-c]pyridin-4(5H)-one]
77%	CC1(F)CN(C(=O)Cn2ccc3scc(-c4cnc(Cl)c(Cl)c4)c3c2=O)C1 [Example 76, 3-(5,6-dichloropyridin-3-yl)-5-(2-(3-fluoro-3-methylazetidin-1-yl)-2-oxoethyl)thieno[3,2-c]pyridin-4(5H)-one]
96%	O=C(Cn1ccc2c(c(-c3ccc(F)c(C(F)(F)F)c3)cn2CCF)c1=O)N1CCC(F)C1 (stereo not drawn) [Example 252, 3-(4-fluoro-3-(trifluoromethyl)phenyl)-1-(2-fluoroethyl)-5-(2-(3-fluoropyrrolidin-1-yl)-2-oxoethyl)-1H-pyrrolo[3,2-c]pyridin-4(5H)-one]
72%	Cn1cc(-c2ccc(Cl)c(C(F)(F)F)c2)c2c(=O)n(CC(=O)N3CCCC3)cnc21 [Example 158, 5-(4-chloro-3-(trifluoromethyl)phenyl)-7-methyl-3-(2-oxo-2-(pyrrolidin-1-yl)ethyl)-3H-pyrrolo[2,3-d]pyrimidin-4(7H)-one]

Response Recovered (%)	Structure (SMILES)
140%	COCn1cc(-c2ccc(F)c(Cl)c2)c2c(=O)n(CC(=O)N3CC(C)(F)C3)ccc21 [Example 254, 3-(3-chloro-4-fluorophenyl)-5-(2-(3-fluoro-3-methylazetidin-1-yl)-2-oxoethyl)-1-(methoxymethyl)-1,5-dihydro-4H-pyrrolo[3,2-c]pyridin-4-one]
53%	O=C(Cn1ccc2scc(-c3ccc(Cl)c(Cl)c3)c2c1=O)N1CC2(CC2)C1 [Example 78, 3-(3,4-dichlorophenyl)-5-(2-oxo-2-(5-azaspiro[2.3]hexan-5-yl)ethyl)thieno[3,2-c]pyridin-4(5H)-one]
18%	Cc1nc(-c2ccc(F)c(Cl)c2)c2c(=O)n(CC(=O)N3CCC(F)C3)ccn12 (stereo not drawn) [Example 428, 1-(3-chloro-4-fluorophenyl)-7-(2-(3-fluoropyrrolidin-1-yl)-2-oxoethyl)-3-methylimidazo[1,5-a]pyrazin-8(7H)-one]
9%	O=C(Cn1cnc2snc(-c3ccc(Cl)cc3)c2c1=O)N1CCCC1C(F)(F)F (stereo not drawn) [Example 382, 3-(4-chlorophenyl)-5-(2-oxo-2-(2-(trifluoromethyl)pyrrolidin-1-yl)ethyl)isothiazolo[5,4-d]pyrimidin-4(5H)-one]
4.1%	CN(CC(F)(F)F)C(=O)Cn1ccc2scc(-c3ccc(F)c(Cl)c3)c2c1=O [Example 93, 2-(3-(3-chloro-4-fluorophenyl)-4-oxothieno[3,2-c]pyridin-5(4H)-yl)-N-methyl-N-(2,2,2-trifluoroethyl)acetamide]
46%	O=C(Cn1ccc2scc(-c3ccc(F)c(Cl)c3)c2c1=O)N1CC2(CC2)C1 [Example 71, 3-(3-chloro-4-fluorophenyl)-5-(2-oxo-2-(5-azaspiro[2.3]hexan-5-yl)ethyl)thieno[3,2-c]pyridin-4(5H)-one]
68%	O=C(Cn1ccc2c(c(-c3ccc(F)c(C(F)(F)F)c3)cn2CO)c1=O)N1CCC(F)C1 (stereo not drawn) [Example 260, 3-(4-fluoro-3-(trifluoromethyl)phenyl)-5-(2-(3-fluoropyrrolidin-1-yl)-2-oxoethyl)-1-(hydroxymethyl)-1H-pyrrolo[3,2-c]pyridin-4(5H)-one]
140%	Cc1cc(-c2cn(C3CC3)c3ccn(CC(=O)N4CC(C)(F)C4)c(=O)c23)ccc1Cl [Example 292, 3-(4-chloro-3-methylphenyl)-1-cyclopropyl-5-(2-(3-fluoro-3-methylazetidin-1-yl)-2-oxoethyl)-1,5-dihydro-4H-pyrrolo[3,2-c]pyridin-4-one]
20%	O=C(Cn1nnc2scc(-c3ccc(Cl)c(C(F)(F)F)c3)c2c1=O)N1CCC(F)C1 (stereo not drawn) [Example 332, 5-(4-chloro-3-(trifluoromethyl)phenyl)-3-(2-(3-fluoropyrrolidin-1-yl)-2-oxoethyl)thieno[2,3-d][1,2,3]triazin-4(3H)-one]
24%	O=C(Cn1ccc2cccc(-c3ccc(Cl)c(F)c3)c2c1=O)N1CCCC1 [Example 307, 8-(4-chloro-3-fluorophenyl)-2-(2-oxo-2-(pyrrolidin-1-yl)ethyl)isoquinolin-1(2H)-one]
100%	O=C(Cn1ccc2c(c(-c3ccc(Cl)c(Cl)c3)cn2CC(F)(F)F)c1=O)N1CCC(F)C1 (stereo not drawn) [Example 275, 3-(3,4-dichlorophenyl)-5-(2-(3-fluoropyrrolidin-1-yl)-2-oxoethyl)-1-(2,2,2-trifluoroethyl)-1H-pyrrolo[3,2-c]pyridin-4(5H)-one]
1%	O=C(Cn1cnc2ccn(-c3ccc(Cl)cc3)c2c1=O)N1CCOCC1 [Example 371, 5-(4-chlorophenyl)-3-(2-morpholino-2-oxoethyl)-3H-pyrrolo[3,2-d]pyrimidin-4(5H)-one]
9.8%	O=C(Cn1ccc2scc(-c3cnc(F)c(F)c3)c2c1=O)N1CC(F)(CF)C1 [Example 144, 3-(5,6-difluoropyridin-3-yl)-5-(2-(3-fluoro-3-(fluoromethyl)azetidin-1-yl)-2-oxoethyl)thieno[3,2-c]pyridin-4(5H)-one]
140%	Cn1cc(-n2cc(-c3ccc(F)c(C(F)(F)F)c3)c3c(=O)n(CC(=O)N4CC(C)(F)C4)ccc32)cn1 [Example 236, 3-(4-fluoro-3-(trifluoromethyl)phenyl)-5-(2-(3-fluoro-3-methylazetidin-1-yl)-2-oxoethyl)-1-(1-methyl-1H-pyrazol-4-yl)-1H-pyrrolo[3,2-c]pyridin-4(5H)-one]
43%	O=C(Cn1ccn2ccc(-c3ccc(F)c(Cl)c3)c2c1=O)N1CC(F)(C2CC2)C1 [Example 398, 8-(3-chloro-4-fluorophenyl)-2-(2-(3-cyclopropyl-3-fluoroazetidin-1-yl)-2-oxoethyl)pyrrolo[1,2-a]pyrazin-1(2H)-one]
49%	O=C(Cn1ccc2scc(-c3ccc(Cl)c(F)c3)c2c1=O)N1CCC(F)C1 (stereo not drawn) [Example 7, 3-(4-chloro-3-fluorophenyl)-5-(2-(3-fluoropyrrolidin-1-yl)-2-oxoethyl)thieno[3,2-c]pyridin-4(5H)-one]

Structure (SMILES)	Response Recovered (%)
O=C(Cn1cnc2cccc(-c3ccc(Cl)cc3)c2c1=O)N1CCCC1 [Example 295, 5-(4-chlorophenyl)-3-(2-oxo-2-(pyrrolidin-1-yl)ethyl)quinazolin-4(3H)-one]	1%
